According to article PMC7437907, “Impact of pH and protein hydrophobicity on norovirus inactivation by heat-denatured lysozyme” (PLoS ONE, 2020):

Assays:
[1] = stated in discussion, no reference given; cited from earlier work
Source text: Lysozyme is a positively charged protein with an isoelectric point of 11. We anticipated that in a high-pH solution (pH 6.5–8.5), the intermolecular forces would become stronger, thus, denaturing the protein structure upon heating. In other words, adjusting the pH to a high value would trigger the loosening of the protein structure during thermal denaturation. […] Of ...

[2] = Surface hydrophobicity, protein stability and aggregation assay kit (PSA200K); assay type: physicochemical; details: 1% lysozyme solution, pH 4.5–8.5, DL denatured 100°C 40 min, 1X PSA solution, λEx 550 nm, λEm 610 nm, compared with native lysozyme at same pH, p < 0.01, n = 3
Experimental: Hydrophobicity, thiol group content, and circular dichroism (CD) spectra of the different DL preparations were analyzed. Hydrophobicity was measured by using protein stability and aggregation assay kit (PSA200K, Profoldin, Hudson, MA), according to the manufacturer’s instructions. Sample excitation was measured at 550 nm and emission at 610 nm, using a spectrofluorometer (SH-9000, Corona Electric Co., Ltd., Ibaraki, Japan). Thiol group content was determined in a reaction mixture containing 192 μL of deionized water, 20 mM Tris-HCl at pH 8.0, 2.8 μL of Ellman’s reagent [prepared by dissolving 4 mg of 5,5′-dithiobis-(2-nitrobenzoic acid) powder in 1 mL of Tris buffer at pH 7.0], and 200 μL of 1.0% (w/v) DL. After incubation at room temperature for 1 h in the dark, sample absorbance was measured at 412 nm by using a microplate reader (SH-1000 Lab, Corona Electric Co., Ltd.). CD spectra were acquired using a circular dichroism dispersometer (J-720, JASCO Corporation, Tokyo, Japan). For the analysis, DL preparation was diluted to 100 μg/mL in distilled water, and the spectra acquired in the range of 190 to 250 nm, with a scanning speed of 100 nm/min, a bandwidth of 1 nm, and integration frequency of 10.

interferon β (Ifnb) gene = experiment: Gene expression (qPCR) of RAW264.7 macrophages infected with DL-treated MNV-1: Ifnb; assay type: cell-based; details: MNV-1 exposed to 1.0% DL (pH 6.5 before denaturation) for 60 min, MOI 0.01, 24 h, fold-change vs mock by ΔΔCt, n = 3
Experimental: (§1) RAW264.7 cell monolayers (1 × 10^7 cells/mL) in T25 cell flasks (Thermo Fisher Scientific K. K., Tokyo, Japan) were inoculated as described below.
(§2) Live MNV-1 (6 log PFU/mL) was used at a multiplicity of infection (MOI) of 0.01. For some experiments, MNV-1 (6 log PFU/mL) was inactivated by heating at 100°C for 40 min in an oil bath. The heat-treated MNV-1 was then used at MOI of 0.01 (infectivity as determined before heat inactivation). For another set of experiments, 100 μL of MNV-1 (6 log PFU/mL) was mixed with 100 μL of 2.0% of DL (adjusted at pH 6.5 before thermally-denaturation) and allowed to stand at room temperature for 60 min. The mixture was used at MOI of 0.01 (infectivity as before DL treatment).
(§3) The inoculated RAW264.7 cell monolayers were incubated at 37°C under 5% CO2 for 24 h. The cells were then detached by using a cell scraper (Thermo Fisher Scientific) and centrifuged at 300 × g for 5 min. […]
(§4) Total RNA was extracted from inoculated RAW264.7 macrophages using the RNeasy Mini kit (Qiagen, Hilden, Germany), according to the manufacturer’s instructions. […] The resulting cDNA was amplified by quantitative polymerase chain reaction (qPCR) to quantitate the expression levels of interferon β (Ifnb) and interleukin 6 (Il6) genes. […] Fold-changes in mRNA abundance were calculated by the ΔΔCt method, as previously described.

MNV-1 [3] = details: after exposure to DL for 1 h; cited from earlier work
Source text: We have reported that thermally denatured lysozyme (DL) inactivates norovirus. […] Furthermore, DL inactivates norovirus in several foods and is also effective against the hepatitis A virus. However, the conditions for optimal DL norovirus-inactivating effects and the underlying mechanism remain unclear.

interleukin 6 (Il6) gene = experiment: Gene expression (qPCR) of RAW264.7 macrophages infected with DL-treated MNV-1: Il6; assay type: cell-based; details: MNV-1 exposed to 1.0% DL (pH 6.5 before denaturation) for 60 min, MOI 0.01, 24 h, fold-change vs mock by ΔΔCt, n = 3
Experimental: as §1, §2, §3, §4

MNV-1 [4] = experiment: Plaque assay for MNV-1 infectivity after exposure to DL preparations at different pH; assay type: cell-based, murine norovirus strain 1
Experimental: The infectivity of MNV-1 was determined by a plaque assay, as described previously [9]. Briefly, RAW264.7 cells were seeded into 6-well plates (Falcon BD, Franklin Lakes, NJ) at approximately 6 log cells/mL in DMEM containing 5% (v/v) FBS, penicillin (100 U/mL), and streptomycin (100 μg/mL). The plates were incubated at 37°C under 5% CO2 for 18 h. Then, 500 μL/well of samples prepared as described below sections were added to the plates, and the plates were shaken at 20 r/min for 1 h. The inoculated sample was removed, and the wells overlaid with 2 mL of 1.5% (v/v) SeaPlaque agarose (Lonza Japan, Tokyo, Japan) in DMEM containing 5% (v/v) FBS. The plates were incubated at 37°C under 5% CO2 for 48 h. Then, 2 mL of 0.03% (v/v) neutral red solution (Sigma-Aldrich Japan, Tokyo, Japan) was added, and the plates incubated at 37°C under 5% CO2 for 1 h. Thus, visualized plaques were then counted. […] The samples were then diluted 10-fold in DMEM to stop the virus inactivation reaction and analyzed by the plaque assay, as described above.

MNV-1 [5] = experiment: MNV-1 inactivation by heat-denatured Lzm peptides (plaque assay); assay type: cell-based, murine norovirus strain 1; details: peptides at same molar concentration as 1.0% (w/v) lysozyme, or DL 1% pH 3.7; heat-denatured 100°C 40 min; MNV-1 approx. 6 log PFU/mL, 60 min, room temperature; mean, n = 3
Experimental: The infectivity of MNV-1 was determined by a plaque assay, as described previously. Briefly, RAW264.7 cells were seeded into 6-well plates (Falcon BD, Franklin Lakes, NJ) at approximately 6 log cells/mL in DMEM containing 5% (v/v) FBS, penicillin (100 U/mL), and streptomycin (100 μg/mL). The plates were incubated at 37°C under 5% CO2 for 18 h. Then, 500 μL/well of samples prepared as described below sections were added to the plates, and the plates were shaken at 20 r/min for 1 h. The inoculated sample was removed, and the wells overlaid with 2 mL of 1.5% (v/v) SeaPlaque agarose (Lonza Japan, Tokyo, Japan) in DMEM containing 5% (v/v) FBS. The plates were incubated at 37°C under 5% CO2 for 48 h. Then, 2 mL of 0.03% (v/v) neutral red solution (Sigma-Aldrich Japan, Tokyo, Japan) was added, and the plates incubated at 37°C under 5% CO2 for 1 h. Thus, visualized plaques were then counted. The synthesized peptides were dissolved in distilled water to the same molarity as 2.0% (w/v) lysozyme, 14,307 of molecular weight, and heated in an oil bath at 100°C for 40 min, then immediately cooled in ice. Next, 120 μL of MNV-1 solution at 6 log pfu/mL was mixed with 120 μL of the prepared heat-denatured peptides, and allowed to stand for 60 min at room temperature. The samples were immediately diluted 10-fold in DMEM and analyzed by the plaque assay, as described above.

Row | Substance | Decrease in MNV-1 infectivity (log reduction) (MNV-1 [5]) | further results
1 | Lysozyme: egg white lysozyme, single-chain polypeptide consisting of 129 amino acids | – | Isoelectric point [1]: 11
2 | DL: thermally denatured egg white lysozyme, prepared at pH 3.7–8.5 | 0.9 log PFU/mL | Surface hydrophobicity (fluorescence intensity) [2]: significantly higher than that of native lysozyme at any pH; Expression of the Ifnb gene (interferon β (Ifnb) gene): did not increase; Average expansion of MNV-1 particle size (MNV-1 [3]): 16.37 nm; Expression of the Il6 gene (interleukin 6 (Il6) gene): did not increase; Infectivity of MNV-1 after exposure, trend with pH (MNV-1 [4]; 0.1% and 0.5% DL final, preparations at different pH, exposure 60 min, n = 3): tended to decrease as the pH of DL preparations increased; Infectivity of MNV-1 after exposure, versus control (MNV-1 [4]; 1.0% DL final, DL preparations at pH 4.5–8.5, exposure 1 min, control distilled water, Dunnett's test p < 0.01, n = 3): significantly lower than that of the control
3 | RCELAAAMKRHGLDNYRGYSLGNNVCAAKNESNNN [Lzm R2, variant of Lzm 5–39, aromatic amino acids replaced to reduce hydrophobicity] | lost | –
4 | RCELAAAMKRHGLDNYRGYSLGNWVCAAKFESNFN [Lzm 5–39, synthetic peptide of lysozyme residues 5–39] | 1.7 log PFU/mL | –
5 | RCELAAAMKREGLDNYRGYSLGNWVCAAEFESNFN [Lzm R1, variant of Lzm 5–39, basic amino acids replaced with acidic amino acids] | lost | –
6 | RCNLAAAMKRHGLNNYRGYSLGNWVCAAKFNSNFN [Lzm R3, variant of Lzm 5–39, all acidic amino acids replaced with uncharged amino acids] | 2.0 log PFU/mL | –
7 | ITASVNCAKKIVSDGNGMNAWVAWRNRCKGTDVQAWIR [Lzm 88–125, synthetic peptide containing lysozyme residues 88–125] | 0.2 log PFU/mL | –
8 | KVFGRCELAAAMKRHGLDNYRGYSLGNWVCAAKFE [Lzm 1–35, synthetic peptide containing lysozyme residues 1–35] | 1.7 log PFU/mL | –
